Data from patent US20110040086A1, “Novel Beta-Lactam Antibiotics, Methods for Their Production, and Their Use” (DRITTE PATENTPORTFOLIO BETEILIGUNGSGESELLSCHAFT MB, priority 2007, published 2011).

Legend:
S. epidermidis 125 = assay: agar diffusion test (Test System II, multi-resistant germs); type: cell-based, Staphylococcus epidermidis
In short: (§1)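 Zone diameters around compound-loaded discs serve as the activity measure. Plates of Müller-Hinton agar II receive a three-layer coating of McFarland 0.5 suspension and three discs containing 10, 50 or 100 μg, then stand 18-20 h at 37 °C.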

S. epidermidis 1071 = assay: as above; type: cell-based, Staphylococcus epidermidis
In short: as §1

S. epidermidis 1068 = assay: as above; type: cell-based, Staphylococcus epidermidis
In short: as §1

S. epidermidis 847 = assay: as above; type: cell-based, Staphylococcus epidermidis
In short: as §1

S. epidermidis 563 = assay: as above; type: cell-based, Staphylococcus epidermidis
In short: as §1

B. subtilis AWD 166 = assay: agar diffusion test (antimicrobial effect); type: cell-based, Bacillus subtilis
In short: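 Nutrient agar seeded with B. subtilis AWD 166 to give dense non-confluent colonies; compounds in methanol or distilled water applied to discs at 10, 50, 100 μg. After 20 h at 37 °C, inhibition zone diameter measured in mm.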

[1] = system: Enterococcus faecalis 769; assay: agar diffusion test (Test System II, multi-resistant germs); type: cell-based; parameters: key: r = resistant (no detectable zone of inhibition)
In short: as §1

[2] = system: Staphylococcus aureus 315; assay: as above; type: cell-based; parameters: key: r = resistant (no detectable zone of inhibition)
In short: as §1

E. faecalis 945 = assay: as above; type: cell-based, Enterococcus faecalis; parameters: key: r = resistant (no detectable zone of inhibition)
In short: as §1

S. aureus ATCC 6538 = assay: as above; type: cell-based, Staphylococcus aureus
In short: as §1

S. aureus 38418 = assay: as above; type: cell-based, Staphylococcus aureus
In short: as §1

S. aureus 39105 = assay: as above; type: cell-based, Staphylococcus aureus; parameters: key: r = resistant (no detectable zone of inhibition)
In short: as §1

S. aureus 36881 = assay: as above; type: cell-based, Staphylococcus aureus; parameters: key: r = resistant (no detectable zone of inhibition)
In short: as §1

S. aureus 34289 = assay: as above; type: cell-based, Staphylococcus aureus; parameters: key: r = resistant (no detectable zone of inhibition)
In short: as §1

S. aureus 520 = assay: as above; type: cell-based, Staphylococcus aureus; parameters: key: r = resistant (no detectable zone of inhibition)
In short: as §1

S. aureus 33490 = assay: as above; type: cell-based, Staphylococcus aureus; parameters: key: r = resistant (no detectable zone of inhibition)
In short: as §1

[3] = system: S. aureus North Germany strain; assay: as above; type: cell-based, Staphylococcus aureus; parameters: key: r = resistant (no detectable zone of inhibition)
In short: as §1

S. aureus 526 = assay: as above; type: cell-based, Staphylococcus aureus; parameters: key: r = resistant (no detectable zone of inhibition)
In short: as §1

[4] = system: Bacillus megaterium SBUG 1152; assay: agar diffusion test (Test System 1, antimicrobial effect); type: cell-based
In short: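 B. megaterium SBUG 1152 grown overnight (17 h, 37° C., 180 rpm) and seeded at 10^6 cells per 10 ml nutrient agar. Compound at 10, 50 and 100 μg, dissolved in methanol or water, applied to paper discs. Inhibition-zone diameter (mm) read after 20 h at 37° C.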

NC(=O)C1=C(NC(C(=O)NC2C(=O)N3C(C(=O)O)=C(Cl)CSC23)c2ccccc2)C(=O)C=CC1=O (stereo not drawn) [1j, 3-chlorine-7-[2-(2-carbamoyl-3,6-dioxocyclohexa-1,4-dienylamino)-2-phenyl-acetylamino]-8-oxo-1-thia-5-azabicyclo[4.2.0]oct-3-en-4-carboxylic acid]
Diameter of zone of inhibition (S. epidermidis 125; Quantity n 0.02): 22 mm
Diameter of zone of inhibition (S. epidermidis 125; Quantity n 0.1): 30 mm
Diameter of zone of inhibition (S. epidermidis 125; Quantity n 0.2): 32 mm
Diameter of zone of inhibition (S. epidermidis 1071; Quantity n 0.02): 18 mm
Diameter of zone of inhibition (S. epidermidis 1071; Quantity n 0.1): 26 mm
Diameter of zone of inhibition (S. epidermidis 1071; Quantity n 0.2): 28 mm
Diameter of zone of inhibition (S. epidermidis 1068; Quantity n 0.02): 16 mm
Diameter of zone of inhibition (S. epidermidis 1068; Quantity n 0.1): 22 mm
Diameter of zone of inhibition (S. epidermidis 1068; Quantity n 0.2): 26 mm
Diameter of zone of inhibition (S. epidermidis 847; Quantity n [mol] 0.02): 10 mm
Diameter of zone of inhibition (S. epidermidis 847; Quantity n [mol] 0.1): 20 mm
Diameter of zone of inhibition (S. epidermidis 847; Quantity n [mol] 0.2): 24 mm
Diameter of zone of inhibition (S. epidermidis 563; Quantity n 0.02): 20 mm
Diameter of zone of inhibition (S. epidermidis 563; Quantity n 0.1): 26 mm
Diameter of zone of inhibition (S. epidermidis 563; Quantity n 0.2): 32 mm
Diameter of zone of inhibition (B. subtilis AWD 166; Quantity n 0.02): 30 mm
Diameter of zone of inhibition (B. subtilis AWD 166; Quantity n 0.1): 38 mm
Diameter of zone of inhibition (B. subtilis AWD 166; Quantity n 0.2): 40 mm
Diameter of zone of inhibition ([1]; Quantity n 0.02): r
Diameter of zone of inhibition ([1]; Quantity n 0.1): 8 mm
Diameter of zone of inhibition ([1]; Quantity n 0.2): 12 mm
Diameter of zone of inhibition ([2]; Quantity n 0.02): r
Diameter of zone of inhibition ([2]; Quantity n 0.1): 8 mm
Diameter of zone of inhibition ([2]; Quantity n 0.2): 12 mm
Diameter of zone of inhibition (E. faecalis 945; Quantity n 0.02): r
Diameter of zone of inhibition (E. faecalis 945; Quantity n 0.1): r
Diameter of zone of inhibition (E. faecalis 945; Quantity n 0.2): r
Diameter of zone of inhibition (S. aureus ATCC 6538; Quantity n 0.02): 28 mm
Diameter of zone of inhibition (S. aureus ATCC 6538; Quantity n 0.1): 34 mm
Diameter of zone of inhibition (S. aureus ATCC 6538; Quantity n 0.2): 38 mm
Diameter of zone of inhibition (S. aureus 38418; Quantity n [mol] 0.02): 22 mm
Diameter of zone of inhibition (S. aureus 38418; Quantity n [mol] 0.1): 30 mm
Diameter of zone of inhibition (S. aureus 38418; Quantity n [mol] 0.2): 34 mm
Diameter of zone of inhibition (S. aureus 39105; Quantity n 0.02): r
Diameter of zone of inhibition (S. aureus 39105; Quantity n 0.1): 16 mm
Diameter of zone of inhibition (S. aureus 39105; Quantity n 0.2): 18 mm
Diameter of zone of inhibition (S. aureus 36881; Quantity n 0.02): r
Diameter of zone of inhibition (S. aureus 36881; Quantity n 0.1): 12 mm
Diameter of zone of inhibition (S. aureus 36881; Quantity n 0.2): 16 mm
Diameter of zone of inhibition (S. aureus 34289; Quantity n [mol] 0.02): r
Diameter of zone of inhibition (S. aureus 34289; Quantity n [mol] 0.1): r
Diameter of zone of inhibition (S. aureus 34289; Quantity n [mol] 0.2): r
Diameter of zone of inhibition (S. aureus 520; Quantity n [mol] 0.02): r
Diameter of zone of inhibition (S. aureus 520; Quantity n [mol] 0.1): 8 mm
Diameter of zone of inhibition (S. aureus 520; Quantity n [mol] 0.2): 12 mm
Diameter of zone of inhibition (S. aureus 33490; Quantity n [μmol] 0.02): 16 mm
Diameter of zone of inhibition (S. aureus 33490; Quantity n [μmol] 0.1): 24 mm
Diameter of zone of inhibition (S. aureus 33490; Quantity n [μmol] 0.2): 26 mm
Diameter of zone of inhibition ([3]; Quantity n 0.02): r
Diameter of zone of inhibition ([3]; Quantity n 0.1): 12 mm
Diameter of zone of inhibition ([3]; Quantity n 0.2): 16 mm
Diameter of zone of inhibition (S. aureus 526; Quantity n 0.02): r
Diameter of zone of inhibition (S. aureus 526; Quantity n 0.1): r
Diameter of zone of inhibition (S. aureus 526; Quantity n 0.2): r
Diameter of zone of inhibition ([4]; Quantity n 0.02): 28 mm
Diameter of zone of inhibition ([4]; Quantity n 0.1): 36 mm
Diameter of zone of inhibition ([4]; Quantity n 0.2): 40 mm
